Experimental data: PubChem BioAssay (NCI)
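How tested: cells in 96-well plates exposed to compound for 48 hours at five concentrations. The concentration for 50% growth inhibition is given as GI50. TGI: concentration producing complete growth inhibition.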

Key:
Experiment in all cases: NCI anticancer screen, dose series, 48 h
SF-539 CNS = test system: SF-539 CNS
TK-10 renal = test system: TK-10 renal
UACC-257 melanoma = test system: UACC-257 melanoma
DU-145 prostate = test system: DU-145 prostate
PC-3 prostate = test system: PC-3 prostate
EKVX NSCLC = test system: EKVX NSCLC
NCI-H460 lung = test system: NCI-H460 lung
SK-OV-3 ovarian = test system: SK-OV-3 ovarian
MCF7 breast = test system: MCF7 breast
HCT-116 colon = test system: HCT-116 colon

Row | SMILES | GI50 (SF-539 CNS) | TGI (SF-539 CNS) | GI50 (TK-10 renal) | TGI (TK-10 renal) | GI50 (UACC-257 melanoma) | TGI (UACC-257 melanoma) | GI50 (DU-145 prostate) | TGI (DU-145 prostate) | GI50 (PC-3 prostate) | TGI (PC-3 prostate) | GI50 (EKVX NSCLC) | TGI (EKVX NSCLC) | GI50 (NCI-H460 lung) | TGI (NCI-H460 lung) | GI50 (SK-OV-3 ovarian) | TGI (SK-OV-3 ovarian) | GI50 (MCF7 breast) | TGI (MCF7 breast) | GI50 (HCT-116 colon) | TGI (HCT-116 colon)
1 | COc1cc(NS(=O)(=O)c2ccc(-c3cnc(C4CC4)o3)cc2)ccc1F | 0.274 µM | 2.18 µM | 7.88 µM | 53.9 µM | 2.43 µM | 33.9 µM | 0.765 µM | 58.9 µM | 0.329 µM | 17 µM | 1.13 µM | 95.5 µM | 0.447 µM | 14.4 µM | 0.606 µM | 34.6 µM | 0.201 µM | 22.9 µM | 0.29 µM | 14.1 µM
2 | COc1cc2c(c(OC)c1OC)-c1c(cc3c(c1OC)OCO3)C1OC2C(C)C1C (stereo unspecified) (tested in a mixture with another compound) |  | > 100 µM |  | > 100 µM |  | > 100 µM |  | > 100 µM |  | > 100 µM |  | > 100 µM |  | > 100 µM |  | > 100 µM |  | > 100 µM |  | > 100 µM
3 | COc1cc2c3c(n(CCNCCCNCCn4c5c(c6cc(OC)c(OC)cc6c4=O)C(=O)c4ccccc4-5)c(=O)c2cc1OC)-c1ccccc1C3=O | 0.199 µM | 15.5 µM | 2.9 µM | 21.7 µM | 73.3 µM | > 100 µM | 0.197 µM | 30.8 µM | 0.0865 µM | 2.09 µM | 5.89 µM | 47.2 µM | 0.0719 µM | 4.68 µM | 7.02 µM | 32.2 µM | 0.0878 µM | 2.9 µM | 0.0254 µM | 1.16 µM
4 | COC(=O)[C@H](Cc1c[nH]c2ccccc12)NC(=O)[C@@H](OC)[C@@H]1Cc2cc3cc(OC4CC(OC5CC(O)C(O)C(C)O5)C(O)C(C)O4)c(C)c(O)c3c(O)c2C(=O)[C@H]1OC1CC(OC2CC(OC3CC(C)(O)C(O)C(C)O3)C(O)C(C)O2)C(O)C(C)O1 (stereo partly specified) | 0.00546 µM | 0.0244 µM | 0.0651 µM | > 6.46 µM | 0.00662 µM | 0.124 µM | 0.00713 µM | > 16.5 µM | 0.0088 µM | 0.412 µM | 0.0125 µM | 3 µM | 0.00611 µM | > 5.24 µM | 0.0116 µM | > 16.5 µM | 0.00391 µM | 2.55 µM | 0.00537 µM | > 16.5 µM
5 | COc1ccc(C2SCC(=O)N2NC(=O)Nc2c(C)nc3ccccn23)cc1 (stereo unspecified) | 34.1 µM | > 100 µM | 22.6 µM | 49 µM | > 100 µM | > 100 µM | 44.9 µM | > 100 µM | 77.2 µM | > 100 µM | 63 µM | > 100 µM | 90.5 µM | > 100 µM | 24.5 µM | 47.6 µM | 75.7 µM | > 100 µM | 17.1 µM | 42.8 µM
6 | Cc1ccc2c(c1)CN(C(=O)CCC(=O)OCc1ccccc1)c1ccc(C)cc1CN2C(=O)CCC(=O)OCc1ccccc1 |  | > 100 µM |  | > 100 µM |  | > 100 µM |  | > 100 µM |  | > 100 µM |  | > 100 µM |  | > 100 µM |  | > 100 µM |  | > 100 µM |  | > 100 µM
7 | CCOC(=O)c1c(C)nc2c(c1N)/C(=C/c1ccc(OC)cc1)C(=O)N2Cc1ccc(F)cc1 | 0.189 µM | 0.457 µM | 0.264 µM | 1 µM |  |  | 0.279 µM | 1.12 µM | 0.277 µM | 1 µM | 0.27 µM | 2.26 µM | 0.257 µM | 0.744 µM | 0.692 µM | 6.85 µM | 0.195 µM | 1.51 µM | 0.134 µM | 0.36 µM
8 | CC[CH2][Sn]([Cl])([Cl])[CH2]CC.Oc1ccccc1C=NCCN=Cc1ccccc1O | 10.5 µM | 24.2 µM |  |  | 3.61 µM | 17.8 µM | 12.1 µM | 24.6 µM | 6.28 µM | 22.7 µM | 12.9 µM | 27.3 µM | 15.6 µM | 33 µM | 17.2 µM | 35.1 µM | 3.12 µM | 15.8 µM | 4.89 µM | 16.3 µM
9 | Cc1nc(-c2ccccc2)c(-c2ccccc2)s1 |  | 71.4 µM |  | 52.8 µM |  | 79.9 µM |  | > 100 µM |  | 47.1 µM |  | 69.4 µM |  | 42.2 µM |  | > 100 µM |  | 62.3 µM |  | 68.8 µM
10 | Nc1ncn(C2CC(O)C(CO)O2)c(=O)n1 (stereo unspecified) |  | 158 µM |  | > 375 µM |  | 131 µM |  | > 375 µM |  | > 204 µM |  | > 293 µM |  | > 375 µM |  | 182 µM |  | > 375 µM |  | > 375 µM
11 | O=C(/C=C\n1cnc(-c2cc(C(F)(F)F)cc(C(F)(F)F)c2)n1)NNc1cnccn1 | 0.0286 µM | 1.12 µM | 0.466 µM | 16.5 µM | 0.188 µM | 16.6 µM | 0.271 µM | 12.6 µM | 0.128 µM | 15.7 µM | 0.0853 µM | 14.5 µM | 0.037 µM | 3.14 µM | 0.643 µM | 25.3 µM | 0.0329 µM | 11.5 µM | 0.0821 µM | 12.4 µM
